Measured values taken from ChEMBL document CHEMBL1137038, “7-Substituted 2-phenyl-benzofurans as ER beta selective ligands” (Bioorg Med Chem Lett, 2004).

Target: T1, Estrogen receptor (Homo sapiens, UniProt P03372)
T1 sequence (P03372 whole entry): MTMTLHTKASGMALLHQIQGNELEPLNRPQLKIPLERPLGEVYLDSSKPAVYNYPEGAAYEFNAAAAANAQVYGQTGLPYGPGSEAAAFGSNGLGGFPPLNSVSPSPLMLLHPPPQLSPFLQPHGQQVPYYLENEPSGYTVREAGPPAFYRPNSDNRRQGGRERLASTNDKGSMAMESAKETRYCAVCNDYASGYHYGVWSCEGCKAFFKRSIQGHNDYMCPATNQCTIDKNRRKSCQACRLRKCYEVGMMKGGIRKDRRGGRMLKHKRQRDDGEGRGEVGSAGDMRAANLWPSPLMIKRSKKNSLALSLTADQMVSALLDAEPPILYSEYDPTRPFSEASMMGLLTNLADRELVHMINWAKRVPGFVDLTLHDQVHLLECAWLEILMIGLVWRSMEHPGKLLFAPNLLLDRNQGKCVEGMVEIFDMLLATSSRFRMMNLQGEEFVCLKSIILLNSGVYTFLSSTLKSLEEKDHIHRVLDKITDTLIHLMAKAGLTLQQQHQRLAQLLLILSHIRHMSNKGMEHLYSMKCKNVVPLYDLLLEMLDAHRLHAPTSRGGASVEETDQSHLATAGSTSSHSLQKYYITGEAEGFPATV
Description: Binding affinity for human Estrogen receptor alpha

Compound | IC50
COc1cc(O)cc2cc(-c3ccc(O)c(F)c3)oc12 | 990 nM
COc1cc(O)c(Br)c2cc(-c3ccc(O)c(F)c3)oc12 | 335 nM
